Assay results: article PMC12649549, “Sequence Permutation Generated Lysine and Tryptophan-Rich Antimicrobial Peptides with Enhanced Therapeutic Index” (Antibiotics, 2025)
Read-outs that look alike come from different tables or passages of the source.

Legend:
S. aureus ATCC 33593 = tested on: S. aureus ATCC 33593
Outline: (§1)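 Broth microdilution per CLSI in Müller-Hinton broth and modified LYM broth (pH 7.4; variants with 300–50 mM NaCl, 2.5–0.5 mM MgCl2, or pH 6.5–4.5). Inoculum 5 × 10^5 CFU/mL; peptides at final 50 to 0.78 µg/mL, twofold series. MIC reported; three independent repeats.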

[1] = tested on: A. baumannii 14B0097 (Acinetobacter sp., BCRC number 14B0097)
Outline: as §1

[2] = tested on: Pseudomonas aeruginosa Migula (ATCC 27853)
Outline: as §1

S. aureus ATCC 33592 = tested on: S. aureus ATCC 33592
Method: The antibacterial and salt-resistant activity of the peptides was tested using Escherichia coli (ATCC 25922), Pseudomonas aeruginosa Migula (ATCC 27853), Acinetobacter sp. (BCRC number 14B0091, BCRC number 14B0097, and BCRC number 14B0100), and Staphylococcus aureus sp. strains (ATCC 25923, ATCC 33591, ATCC 33592, ATCC 33593, and ATCC 6538). All bacteria were obtained from the Food Industry Research and Development Institute (Hsinchu, Taiwan) and cultured in sterilized Müller-Hinton (MH) broth at 37 °C and 200 rpm for 8 h. The inoculum concentrations were determined by measuring the optical density at 600 nm (OD 600 = 1, approximately 10^8 CFU/mL) using an Ultrospec 2100 pro UV-Visible spectrophotometer (Biochrom Ltd., Cambridge, UK) after 8 h of culture.
The antibacterial activities of the peptides in Müller-Hinton (MH) broth and modified LYM broth were determined using the standard broth microdilution method as per Clinical and Laboratory Standards Institute (CLSI) guidelines. The LYM broth was prepared with specific components and adjusted to different conditions, including varying concentrations of NaCl and MgCl2, and different pH levels. To prepare the LYM broth, 5.4 mM KCl, 5.6 mM Na2HPO4, 0.5 mM MgSO4, and 1.0 mM sodium citrate were added. Additionally, 0.4 mg of ZnCl2, 2.0 mg of FeCl3·6H2O, 0.1 mg of CuSO4·5H2O, 0.1 mg of MnSO4·H2O, 0.1 mg of Na2B4O7∙10H2O, 700 mg of amino acid mixtures without tryptophan (Takara Bio Inc., San Jose, CA, USA), and 20 mg of L-tryptophan were added per liter of medium. The pH was adjusted to 7.4, and a vitamin mixture (100X, Sigma) and glucose concentration of 2% were added. […] Bacterial strains were incubated in MH broth overnight, regrown, and diluted to a final concentration of 5 × 10^5 CFU/mL. Peptides were added to each well at final concentrations of 50, 25, 12.5, 6.25, 3.13, 1.56, and 0.78 µg/mL, and 99 µL of diluted microbes was loaded into each well of a polypropylene 96-well plate. […] The Morpheus HeatMap software (https://software.broadinstitute.org/morpheus/) was used to display MIC values on a color scale. All experiments were independently repeated three times.

Gram-positive bacteria = experiment: Geometric mean MIC and therapeutic index, Gram-positive bacteria; assay type: cell-based; settings: Gram-positive bacteria; for GM G+ (geometric mean of the MIC values): MH broth, MIC >50 µg/mL counted as 100 µg/mL; for Therapeutic Index (TI) G+: HC10/GM
Method: In this study, we aimed to investigate the potential of W5K series peptides for therapeutic use. To evaluate their efficacy for antibacterial therapy, we used the Therapeutic Index (TI) as a measure of their cell selectivity. The TI was calculated as the ratio of the concentration causing 10% hemolysis of human red blood cells (HC10) to the geometric mean minimum inhibitory concentration (GM) of the peptides against both Gram-negative and Gram-positive bacteria. This parameter was used to quantitatively assess the balance between antibacterial potency and cytotoxicity among the W5K derivatives.
The antibacterial activities of the peptides in Müller-Hinton (MH) broth and modified LYM broth were determined using the standard broth microdilution method as per Clinical and Laboratory Standards Institute (CLSI) guidelines. The LYM broth was prepared with specific components and adjusted to different conditions, including varying concentrations of NaCl and MgCl2, and different pH levels. To prepare the LYM broth, 5.4 mM KCl, 5.6 mM Na2HPO4, 0.5 mM MgSO4, and 1.0 mM sodium citrate were added. Additionally, 0.4 mg of ZnCl2, 2.0 mg of FeCl3·6H2O, 0.1 mg of CuSO4·5H2O, 0.1 mg of MnSO4·H2O, 0.1 mg of Na2B4O7∙10H2O, 700 mg of amino acid mixtures without tryptophan (Takara Bio Inc., San Jose, CA, USA), and 20 mg of L-tryptophan were added per liter of medium. The pH was adjusted to 7.4, and a vitamin mixture (100X, Sigma) and glucose concentration of 2% were added. For different conditions of LYM broth, NaCl concentrations of 300, 200, 150, and 50 mM, MgCl2 concentrations of 2.5, 1.5, and 0.5 mM, and pH levels of 6.5, 5.5, and 4.5 were adjusted. Bacterial strains were incubated in MH broth overnight, regrown, and diluted to a final concentration of 5 × 10^5 CFU/mL. Peptides were added to each well at final concentrations of 50, 25, 12.5, 6.25, 3.13, 1.56, and 0.78 µg/mL, and 99 µL of diluted microbes was loaded into each well of a polypropylene 96-well plate. […] The Morpheus HeatMap software (https://software.broadinstitute.org/morpheus/) was used to display MIC values on a color scale. All experiments were independently repeated three times.

[3] = LYM broth, 0 mM NaCl, 16 h, 37 °C
[4] = LYM broth, 50 mM NaCl, 16 h, 37 °C
[5] = LYM broth, 100 mM NaCl, 16 h, 37 °C
[6] = LYM broth, 200 mM (NaCl), 16 h, 37 °C
[7] = LYM broth, 300 mM (NaCl), 16 h, 37 °C
[8] = MH broth, 5 × 10^5 CFU/mL, 16 h, 37 °C, repeated three times

Substance: Ac-KKKWRKWLKWLAK-NH2 [Peptide W5K12]
- MIC (S. aureus ATCC 33593; [3]): 3.13 µg/mL
- MIC (S. aureus ATCC 33593; LYM broth, 0.5 mM MgCl2): 3.13 µg/mL
- MIC (S. aureus ATCC 33593; LYM broth, 1.5 mM MgCl2): 3.13 µg/mL
- MIC (S. aureus ATCC 33593; LYM broth, 2.5 mM MgCl2): 3.13 µg/mL
- MIC (S. aureus ATCC 33593; [4]): 3.13 µg/mL
- MIC (S. aureus ATCC 33593; [5]): 3.13 µg/mL
- MIC (S. aureus ATCC 33593; [6]): 6.25 µg/mL
- MIC (S. aureus ATCC 33593; [7]): 12.5 µg/mL
- MIC (S. aureus ATCC 33593; LYM broth, pH 4.5): 3.13 µg/mL
- MIC (S. aureus ATCC 33593; LYM broth, pH 5.5): 1.56 µg/mL
- MIC (S. aureus ATCC 33593; LYM broth, pH 6.5): 1.56 µg/mL
- MIC (S. aureus ATCC 33593; [8]): 6.25 µg/mL
- MIC [1, 3]: 1.56 µg/mL
- MIC ([1]; LYM broth, 0.5 mM MgCl2): 1.56 µg/mL
- MIC ([1]; LYM broth, 1.5 mM MgCl2): 1.56 µg/mL
- MIC ([1]; LYM broth, 2.5 mM MgCl2): 3.13 µg/mL
- MIC [1, 4]: 1.56 µg/mL
- MIC [1, 5]: 1.56 µg/mL
- MIC [1, 6]: 1.56 µg/mL
- MIC [1, 7]: 3.13 µg/mL
- MIC ([1]; LYM broth, pH 4.5): 3.13 µg/mL
- MIC ([1]; LYM broth, pH 5.5): 3.13 µg/mL
- MIC ([1]; LYM broth, pH 6.5): 1.56 µg/mL
- MIC [1, 8]: 1.56 µg/mL
- MIC [2, 3]: 1.56 µg/mL
- MIC ([2]; LYM broth, 0.5 mM MgCl2): 1.56 µg/mL
- MIC ([2]; LYM broth, 1.5 mM MgCl2): 1.56 µg/mL
- MIC ([2]; LYM broth, 2.5 mM MgCl2): 3.13 µg/mL
- MIC [2, 4]: 1.56 µg/mL
- MIC [2, 5]: 3.13 µg/mL
- MIC [2, 6]: 6.25 µg/mL
- MIC [2, 7]: 12.5 µg/mL
- MIC ([2]; LYM broth, pH 4.5): 1.56 µg/mL
- MIC ([2]; LYM broth, pH 5.5): 1.56 µg/mL
- MIC ([2]; LYM broth, pH 6.5): 1.56 µg/mL
- MIC [2, 8]: 3.13 µg/mL
- MIC (S. aureus ATCC 33592; [3]): 3.13 µg/mL
- MIC (S. aureus ATCC 33592; LYM broth, 0.5 mM MgCl2): 3.13 µg/mL
- MIC (S. aureus ATCC 33592; LYM broth, 1.5 mM MgCl2): 3.13 µg/mL
- MIC (S. aureus ATCC 33592; LYM broth, 2.5 mM MgCl2): 3.13 µg/mL
- MIC (S. aureus ATCC 33592; [4]): 3.13 µg/mL
- MIC (S. aureus ATCC 33592; [5]): 3.13 µg/mL
- MIC (S. aureus ATCC 33592; [6]): 6.25 µg/mL
- MIC (S. aureus ATCC 33592; [7]): 12.5 µg/mL
- MIC (S. aureus ATCC 33592; LYM broth, pH 4.5): 3.13 µg/mL
- MIC (S. aureus ATCC 33592; LYM broth, pH 5.5): 3.13 µg/mL
- MIC (S. aureus ATCC 33592; LYM broth, pH 6.5): 1.56 µg/mL
- MIC (S. aureus ATCC 33592; [8]): 6.25 µg/mL
- GM G+ (geometric mean of the MIC values) (Gram-positive bacteria): 4.7 µg/mL
- Therapeutic Index (TI) G+ (Gram-positive bacteria): 8.8

Substance: Ac-KKWRKWLKWLAKK-NH2 [W5K/A9W]
- MIC (S. aureus ATCC 33593; [3]): 3.13 µg/mL
- MIC (S. aureus ATCC 33593; LYM broth, 0.5 mM MgCl2): 3.13 µg/mL
- MIC (S. aureus ATCC 33593; LYM broth, 1.5 mM MgCl2): 3.13 µg/mL
- MIC (S. aureus ATCC 33593; LYM broth, 2.5 mM MgCl2): 3.13 µg/mL
- MIC (S. aureus ATCC 33593; [4]): 3.13 µg/mL
- MIC (S. aureus ATCC 33593; [5]): 3.13 µg/mL
- MIC (S. aureus ATCC 33593; [6]): 6.25 µg/mL
- MIC (S. aureus ATCC 33593; [7]): 12.5 µg/mL
- MIC (S. aureus ATCC 33593; LYM broth, pH 4.5): 3.13 µg/mL
- MIC (S. aureus ATCC 33593; LYM broth, pH 5.5): 3.13 µg/mL
- MIC (S. aureus ATCC 33593; LYM broth, pH 6.5): 3.13 µg/mL
- MIC (S. aureus ATCC 33593; [8]): 12.5 µg/mL
- MIC [1, 3]: 1.56 µg/mL
- MIC ([1]; LYM broth, 0.5 mM MgCl2): 1.56 µg/mL
- MIC ([1]; LYM broth, 1.5 mM MgCl2): 1.56 µg/mL
- MIC ([1]; LYM broth, 2.5 mM MgCl2): 1.56 µg/mL
- MIC [1, 4]: 1.56 µg/mL
- MIC [1, 5]: 1.56 µg/mL
- MIC [1, 6]: 1.56 µg/mL
- MIC [1, 7]: 1.56 µg/mL
- MIC ([1]; LYM broth, pH 4.5): 1.56 µg/mL
- MIC ([1]; LYM broth, pH 5.5): 1.56 µg/mL
- MIC ([1]; LYM broth, pH 6.5): 1.56 µg/mL
- MIC [1, 8]: 1.56 µg/mL
- MIC [2, 3]: 1.56 µg/mL
- MIC ([2]; LYM broth, 0.5 mM MgCl2): 1.56 µg/mL
- MIC ([2]; LYM broth, 1.5 mM MgCl2): 3.13 µg/mL
- MIC ([2]; LYM broth, 2.5 mM MgCl2): 3.13 µg/mL
- MIC [2, 4]: 1.56 µg/mL
- MIC [2, 5]: 1.56 µg/mL
- MIC [2, 6]: 3.13 µg/mL
- MIC [2, 7]: 6.25 µg/mL
- MIC ([2]; LYM broth, pH 4.5): 1.56 µg/mL
- MIC ([2]; LYM broth, pH 5.5): 1.56 µg/mL
- MIC ([2]; LYM broth, pH 6.5): 1.56 µg/mL
- MIC [2, 8]: 3.13 µg/mL
- MIC (S. aureus ATCC 33592; [3]): 3.13 µg/mL
- MIC (S. aureus ATCC 33592; LYM broth, 0.5 mM MgCl2): 3.13 µg/mL
- MIC (S. aureus ATCC 33592; LYM broth, 1.5 mM MgCl2): 3.13 µg/mL
- MIC (S. aureus ATCC 33592; LYM broth, 2.5 mM MgCl2): 3.13 µg/mL
- MIC (S. aureus ATCC 33592; [4]): 3.13 µg/mL
- MIC (S. aureus ATCC 33592; [5]): 3.13 µg/mL
- MIC (S. aureus ATCC 33592; [6]): 6.25 µg/mL
- MIC (S. aureus ATCC 33592; [7]): 12.5 µg/mL
- MIC (S. aureus ATCC 33592; LYM broth, pH 4.5): 3.13 µg/mL
- MIC (S. aureus ATCC 33592; LYM broth, pH 5.5): 3.13 µg/mL
- MIC (S. aureus ATCC 33592; LYM broth, pH 6.5): 3.13 µg/mL
- MIC (S. aureus ATCC 33592; [8]): 12.5 µg/mL
- GM G+ (geometric mean of the MIC values) (Gram-positive bacteria): 8.2 µg/mL
- Therapeutic Index (TI) G+ (Gram-positive bacteria): 3.6
